Here are results for one compound from ChEMBL document CHEMBL1955859, “Molecular modeling study of cyclic pentapeptide CXCR4 antagonists: new insight into CXCR4-FC131 interactions” (Bioorg Med Chem Lett, 2012).

This test concerns the target C-X-C chemokine receptor type 4 (Homo sapiens, UniProt P61073). Nature of the test: Antagonist activity at CXCR4. The format is functional.

Structures are written as SMILES.

Chain of C-X-C chemokine receptor type 4 (P61073 whole entry): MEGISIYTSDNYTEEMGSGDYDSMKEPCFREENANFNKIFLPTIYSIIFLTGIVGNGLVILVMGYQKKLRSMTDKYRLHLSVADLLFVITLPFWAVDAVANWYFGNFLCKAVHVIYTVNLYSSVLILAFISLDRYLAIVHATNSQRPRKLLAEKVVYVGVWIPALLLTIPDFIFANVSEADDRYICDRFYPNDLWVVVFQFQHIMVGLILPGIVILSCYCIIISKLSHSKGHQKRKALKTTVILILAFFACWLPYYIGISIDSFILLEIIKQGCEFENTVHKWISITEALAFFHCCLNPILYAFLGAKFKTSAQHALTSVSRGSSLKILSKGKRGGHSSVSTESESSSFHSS

One may read the IC50 as the concentration that gives 50% inhibition. A lower IC50 goes with greater potency. In turn, `NC(N)=NCCC[C@@H]1NC(=O)[C@H](CCCN=C(N)N)NC(=O)[C@@H](Cc2ccccc2)NC(=O)CNC(=O)[C@H](Cc2ccc3ccccc3c2)NC1=O` had a half-maximal inhibitory concentration (IC50) of 51 nM.
